In patent US20260191853A1, “METHOD OF TREATING DRUG-INDUCED BRADYARRHYTHMIA” (OSAKA UNIVERSITY, priority 2022, published 2026):
Entries after “also recorded” stand apart in the source; their conditions may differ.

Tests used:
Hartley guinea pigs = experiment: Termination effect on siponimod-induced bradyarrhythmia in isoflurane-anesthetized guinea pig model; assay type: in vivo
From the text: Hartley guinea pigs (7 to 10 weeks old, male, available from Japan SLC, Inc.) were subjected to anesthetic induction by inhalation of isoflurane (available from Pfizer Japan Inc.), and each animal was held on an operating table having a heater function. The trachea was incised, and a tracheal cannula (KN-375, available from Natsume Seisakusho Co., Ltd.) was inserted. The tracheal cannula was connected to a ventilator (SN-480-7, available from Shinano Seisakusho Co., Ltd.), and artificial respiration was controlled by supplying 100% oxygen at a volume of 10 mL and a ventilation rate of 60 times/minute. Isoflurane (available from Pfizer Japan Inc.) anesthesia (about 1 to 4%, carrier gas: 100% oxygen) was used for maintenance of anesthesia. A catheter (BD intramedic polyethylene tubing PE50, available from Becton, Dickinson and Company) charged with 50 units/mL heparin (available from AY PHARMACEUTICALS CO., LTD.) was inserted into each of the carotid artery and the jugular vein and placed in the blood vessel. Systemic blood pressure was measured with a high-sensitivity DC amplifier (AD-611J, available from NIHON KOHDEN CORPORATION) via the catheter placed in the carotid artery. Electrodes were attached to the body surface, and a body surface electrocardiogram was measured with a high-sensitivity amplifier (AB-611J, available from NIHON KOHDEN CORPORATION). Blood pressure and electrocardiogram data were acquired and analyzed with PowerLab/Labchart system (available from ADInstruments). After stabilization of each parameter, siponimod (available from Nissan Chemical Corporation) was continuously administered intravenously at 0.01 mg/kg for 10 minutes via the catheter placed in the jugular vein, followed by observation of the presence or absence of atrioventricular block. The solvent used was a solution prepared by mixing of Polyethylene Glycol 400 (available from KANTO CHEMICAL CO., INC.) and dimethyl sulfoxide (available from FUJIFILM Wako Pure Chemical Corporation) at 9: 1 (volume ratio). […] Data were recorded and blood was collected 10, 20, and 30 minutes after initiation of administration of compound (I) dihydrochloride and at the time of termination of atrioventricular block. […] Data were analyzed for the presence or absence of the termination, the time required for the termination, and the plasma concentration of compound (I) at the time of termination. […] After thawing of the plasma, plasma drug concentrations were measured using LC/MS/MS after deproteinization with acetonitrile. […]

[1] = test system: human iPS cell-derived atrial myocytes; experiment: Siponimod-induced decrease in beating rate in human iPS cell-derived atrial myocytes (multi-electrode array); assay type: cell-based; conditions: 0.1 μM compound (I) added after 0.1 μM siponimod, observed 10 minutes; FIG. 6
Experimental: Cryopreserved human iPS cell-derived atrial myocytes (Human iPSC-derived atrial cardiomyocytes, available from Axol Bioscience) were thawed and seeded at 1,400,000 cells/well on a fibronectin-coated 6-well plate, followed by culturing in an incubator at 37° C. and 5% CO2 for 11 days. During the culture, the entire amount of medium was changed every other day. After the elapse of 11 days, human iPS cell-derived atrial myocytes that started beating were removed from the plate and recovered with TrypLE Select Enzyme (available from ThermoFisher Scientific). The atrial myocytes were seeded at 25,000 cells/2 μL on a fibronectin-coated 6-well MEA Chip (60-6well MEA200/30iR-Ti-tcr, available from Multi Channel Systems) and cultured in an incubator at 37° C. and 5% CO2 for one hour. Thereafter, 400 μL of medium was added and cultured in an incubator at 37° C. and 5% CO2 for 13 days. During the culture, a half amount of the medium was changed every other day. After the elapse of […], the MEA Chip was set in a multi-electrode array system (MEA2100, available from Multi Channel Systems) to thereby obtain extracellular potentials under spontaneous beating. […] Data were analyzed with Labchart System (available from ADInstruments).
In FIG. 6, the measurements are shown as mean±standard error, and (I) denotes compound (I).

beagle dog = experiment: Therapeutic effect on verapamil-induced bradycardia in conscious beagle dog; assay type: in vivo; conditions: FIG. 10
Experimental: A peripheral venous path was secured with an 18 G needle in the right forelimb of a beagle dog (body weight: about 10 kg, female, available from Oriental Yeast Co., Ltd.), and then held on an operating table. Heart rate was monitored with an electrocardiographic monitor worn on the animal. A manchette was worn on the left forelimb, and blood pressure was measured with an Omron automatic electronic sphygmomanometer. The left ventricular function was measured by the M-mode method using the echocardiographic left parasternal short-axis two-chamber view. After stabilization of the heart rate, verapamil (intravenous injection of Vasolan, available from Eisai Co., Ltd.) was administered by continuous intravenous injection at a dose of 0.8 mg/kg/hour with a syringe pump. About 30 minutes after the initiation of administration, the dose was increased to 2.4 mg/kg/hour, and continuous infusion was continued. Since 2:1 atrioventricular block was continuously determined 17 minutes after an increase in the dose, the administration of verapamil was discontinued. Subsequently, saline and compound (I) dihydrochloride (0.01 mg/kg, 0.1 mg/kg, 1 mg/kg) were administered by bolus intravenous injection at 10-minute intervals. About 10 minutes after each administration, electrocardiogram, heart rate, blood pressure, and left ventricular function were measured and evaluated in a stable state. […]

Cc1cc(CO)nc2cc3c(cc12)OC(C)(C)[C@H](O)[C@H]3NCCc1ccccc1 [Compound (I), (3R,4S)-7-Hydroxymethyl-2,2,9-trimethyl-4-(phenethylamino)-3,4-dihydro-2H-pyrano[2,3-g]quinoline-3-ol]
siponimod-induced bradyarrhythmia (atrioventricular block) termination (Hartley guinea pigs; compound (I) dihydrochloride 0.1 mg/kg continuous i.v.): completely terminated | Compound (I) concentration at the time of termination (Hartley guinea pigs; plasma, siponimod-induced block, 0.1 mg/kg continuous i.v. for 30 minutes, mean±standard error): 22.7 ± 3.1 ng/mL | Number of cases where atrioventricular block was terminated (Hartley guinea pigs; siponimod-induced block, compound (I) dihydrochloride 0.1 mg/kg continuous i.v. for 30 minutes): 5/5 | Time required for the termination of atrioventricular block (Hartley guinea pigs; siponimod-induced block, compound (I) dihydrochloride 0.1 mg/kg continuous i.v. for 30 minutes, mean±standard error): 638 ± 75 s | effect on siponimod-induced decrease in beating rate [1]: increased the beating rate and improved bradyarrhythmia | verapamil-induced bradyarrhythmia (2:1 atrioventricular block) (beagle dog; 0.1 mg/kg bolus i.v.): exhibited a termination effect | verapamil-induced bradyarrhythmia (2:1 atrioventricular block) (beagle dog; compound (I) dihydrochloride 0.01, 0.1, 1 mg/kg bolus i.v. after verapamil infusion up to 2.4 mg/kg/hour): improved bradyarrhythmia; also recorded: recovery to 1:1 atrioventricular conduction
